Source: patent US20160303231A1, “TREATING CANCER WITH A COMBINATION OF A PD-1 ANTAGONIST AND A VEGFR INHIBITOR” (GLAXOSMITHKLINE LLC, priority 2013, published 2016)
Where a name gives a salt, the structure may show the parent alone.

System: RENCA cells
Test: Anti-tumor response of tumor-bearing mice (RENCA tumor model)
Type: in vivo, BALB/c mice
Settings: for Tumor Size (D17): Mean ± SEM, day 17
Procedure: A cohort of 8 weeks old female BALB/c mice were implanted with 1×10^6 RENCA cells. […] The Vehicle control was 0.5% hydroxypropylemethylcellulose, 0.1% Tween-80 in distilled water, pH adjusted to 1.3-1.5 with 0.1N hydrochloric acid. The Isotype control was mouse IgG1 specific for an adenoviral hexon protein (clone TC31.27F11).
A one-way ANOVA test was performed to compare tumor volume at the end of study among groups.

[1] = G4: Isotype 5 mpk + Pazopanib 100 mpk qd
[2] = G6: Isotype 1 mpk + Pazopanib 100 mpk qd
[3] = G8: Isotype 5 mpk + Pazopanib 100 mpk bid

**Q.** With `Cc1ccc(Nc2nccc(N(C)c3ccc4c(C)n(C)nc4c3)n2)cc1S(N)(=O)=O` [Pazopanib, 5-[[4-[(2,3-dimethyl-2H-indazol-6-yl)methylamino]-2-pyrimidinyl]amino]-2-methylbenzenesulfonamide monohydrochloride] as the compound, how does the T/C [1] read?
**A.** 61%

**Q.** What about the “TGI (tumor growth inhibition)” value [1] of the same compound?
**A.** 39%

**Q.** And the T/C [2]?
**A.** 70%

**Q.** And the “TGI (tumor growth inhibition)” value [2]?
**A.** 30%

**Q.** And the “Tumor Size (D17)” value [2]?
**A.** 1,751 ± 214 mm^3

**Q.** And the T/C [3]?
**A.** 48%

**Q.** And the “TGI (tumor growth inhibition)” value [3]?
**A.** 52%

**Q.** And the “Tumor Size (D17)” value [3]?
**A.** 1,240 ± 97 mm^3
